The values that follow are results of earlier work, collected in patent publication US9339471B2, “Long acting dual release product containing carbinoxamine and pseudoephedrine” (E5 PHARMA, LLC, priority 2007, dated 2016).

The conditions of the data set: dependent on urine pH; cited from earlier work.

Regarding `CN[C@@H](C)[C@@H](O)c1ccccc1.Cl` (relative stereo) [Pseudoephedrine, [S—(R*,R*)]-α-[1-(methylamino)ethyl]-benzenemethanol hydrochloride], the mean elimination half-life is 4 to 6 h.
